Experimental data published in PubChem BioAssay AID194 (DTP/NCI, 2004).
“And” between values parts separate entries of the source, which are not always exact repeats. Equal values may be shown once. Records with an inconclusive call do not appear.

System: BDF1 mice, B16 melanoma s.c., survival/tumor T/C
Assay: NCI In Vivo Anticancer Drug Screen. Data for tumor model B16 Melanoma (subcutaneous) in B6D2F1 (BDF1) mice
Description: The antitumor activity of compounds was measured in mice bearing transplantable tumors. Survival or tumor size were measured and the results are expressed as the measurement made in the treated group (T) divided by the measurement made in the vehicle treated control group (C). The tumor model used in this assay is B16 Melanoma (subcutaneous) in B6D2F1 (BDF1) mice

## COC(=O)[C@@]12OC[C@]34[C@H]([C@@H](O)[C@@H]1O)[C@@]1(C)CC(=O)C(O)=C(C)[C@@H]1C[C@H]3OC(=O)[C@H](OC(=O)/C=C(\C)C(C)C)[C@@H]24
endpoint: median survival time, dose: 0.25 mg/kg/injection, schedule: Q01DX009 (ip), vehicle: saline with Tween-80, higher = longer survival
  T/C: 109 % of control
endpoint: median survival time, dose: 0.5 mg/kg/injection, schedule: Q01DX009 (ip), vehicle: saline with Tween-80, higher = longer survival
  T/C: 96 % of control
endpoint: median survival time, dose: 1.0 mg/kg/injection, schedule: Q01DX009 (ip), vehicle: saline with Tween-80, higher = longer survival
  T/C: 103 % of control
endpoint: median survival time, dose: 1.1 mg/kg/injection, schedule: Q01DX009 (ip), vehicle: saline with Tween-80, higher = longer survival
  T/C: 121 % of control
endpoint: median survival time, dose: 1.3 mg/kg/injection, schedule: Q04DX003 (ip), vehicle: saline with Tween-80, higher = longer survival
  T/C: 116 % of control
endpoint: median survival time, dose: 2.0 mg/kg/injection, schedule: Q01DX001 (ip), vehicle: saline with Tween-80, higher = longer survival
  T/C: 103 % of control
endpoint: median survival time, dose: 2.0 mg/kg/injection, schedule: Q04DX003 (ip), vehicle: saline with Tween-80, higher = longer survival
  T/C: 112 % of control

## CO[C@@]12[C@H](COC(N)=O)C3=C(C(=O)C(C)=C(N)C3=O)N1C[C@@H]1N[C@@H]12
endpoint: median survival time, dose: 0.25 mg/kg/injection, schedule: Q01DX009 (ip), vehicle: Klucel (hydroxypropylcellulose) (HPC), higher = longer survival
  T/C: 95 % of control
endpoint: median survival time, dose: 0.5 mg/kg/injection, schedule: Q01DX009 (ip), vehicle: Klucel (hydroxypropylcellulose) (HPC), higher = longer survival
  T/C: 110 % of control
endpoint: median survival time, dose: 2.0 mg/kg/injection, schedule: Q01DX009 (ip), vehicle: Klucel (hydroxypropylcellulose) (HPC), higher = longer survival
  T/C: 154 % of control
endpoint: median tumor weight (est.), dose: 0.25 mg/kg/injection, schedule: Q01DX009 (ip), vehicle: saline, higher = larger tumour
  T/C: 77 % of control
endpoint: median tumor weight (est.), dose: 0.5 mg/kg/injection, schedule: Q01DX009 (ip), vehicle: saline, higher = larger tumour
  T/C: 101 % of control
endpoint: median tumor weight (est.), dose: 1.0 mg/kg/injection, schedule: Q01DX009 (ip), vehicle: saline, higher = larger tumour
  T/C: 70 % of control
endpoint: median tumor weight (est.), dose: 2.0 mg/kg/injection, schedule: Q01DX009 (ip), vehicle: saline, higher = larger tumour
  T/C: 30 % of control

## S=c1nc[nH]c2nc[nH]c12
endpoint: median survival time, dose: 12.5 mg/kg/injection, schedule: Q01DX009 (ip), vehicle: Klucel (hydroxypropylcellulose) (HPC), higher = longer survival
  T/C: 103 % of control and 118 % of control
endpoint: median survival time, dose: 25.0 mg/kg/injection, schedule: Q01DX009 (ip), vehicle: saline with Tween-80, higher = longer survival
  T/C: 100 % of control
endpoint: median survival time, dose: 50.0 mg/kg/injection, schedule: Q01DX009 (ip), vehicle: saline with Tween-80, higher = longer survival
  T/C: 100 % of control
endpoint: median survival time, dose: 100.0 mg/kg/injection, schedule: Q01DX009 (ip), vehicle: saline with Tween-80, higher = longer survival
  T/C: 93 % of control
endpoint: median tumor weight (est.), dose: 25.0 mg/kg/injection, schedule: Q01DX009 (ip), vehicle: saline with Tween-80, higher = larger tumour
  T/C: 103 % of control
endpoint: median tumor weight (est.), dose: 50.0 mg/kg/injection, schedule: Q01DX009 (ip), vehicle: saline with Tween-80, higher = larger tumour
  T/C: 91 % of control

## CCOc1ccc2nc(S(N)(=O)=O)sc2c1
endpoint: median survival time, dose: 3.75 mg/kg/injection, schedule: Q01DX009 (ip), vehicle: saline, higher = longer survival
  T/C: 121 % of control
endpoint: median survival time, dose: 7.5 mg/kg/injection, schedule: Q01DX009 (ip), vehicle: saline, higher = longer survival
  T/C: 123 % of control
endpoint: median survival time, dose: 15.0 mg/kg/injection, schedule: Q01DX009 (ip), vehicle: saline, higher = longer survival
  T/C: 121 % of control
endpoint: median survival time, dose: 30.0 mg/kg/injection, schedule: Q01DX009 (ip), vehicle: saline, higher = longer survival
  T/C: 95 % of control

## CCCCS(=O)CC(CO)NC(=O)/C=C/c1c(C)[nH]c(=O)[nH]c1=O (centres undefined)
endpoint: median survival time, dose: 1.25 mg/kg/injection, schedule: Q01DX009 (ip), vehicle: water, higher = longer survival
  T/C: 100 % of control
endpoint: median survival time, dose: 5.0 mg/kg/injection, schedule: Q01DX009 (ip), vehicle: water, higher = longer survival
  T/C: 100 % of control
endpoint: median survival time, dose: 10.0 mg/kg/injection, schedule: Q01DX009 (ip), vehicle: water, higher = longer survival
  T/C: 116 % of control

## O=C(O)CC(NC(=O)CP(=O)(O)O)C(=O)O (centres undefined)
endpoint: median survival time, dose: 153.0 mg/kg/injection, schedule: Q01DX009 (ip), vehicle: saline, higher = longer survival
  T/C: 110 % of control
endpoint: median survival time, dose: 1140.0 mg/kg/injection, schedule: Q01DX001 (ip), vehicle: saline, higher = longer survival
  T/C: 114 % of control

## C[CH2][Ge]1([CH2]C)[CH2]CC2(CCN(CCCN(C)C)C2)C[CH2]1
endpoint: median survival time, dose: 2.0 mg/kg/injection, schedule: Q02DX009 (ip), vehicle: saline, higher = longer survival
  T/C: 96 % of control
endpoint: median survival time, dose: 4.0 mg/kg/injection, schedule: Q01DX009 (ip), vehicle: saline, higher = longer survival
  T/C: 98 % of control
endpoint: median survival time, dose: 4.0 mg/kg/injection, schedule: Q02DX009 (ip), vehicle: saline, higher = longer survival
  T/C: 110 % of control
endpoint: median survival time, dose: 8.0 mg/kg/injection, schedule: Q01DX009 (ip), vehicle: saline, higher = longer survival
  T/C: 101 % of control
endpoint: median survival time, dose: 8.0 mg/kg/injection, schedule: Q02DX009 (ip), vehicle: saline, higher = longer survival
  T/C: 102 % of control
endpoint: median survival time, dose: 16.0 mg/kg/injection, schedule: Q01DX009 (ip), vehicle: saline, higher = longer survival
  T/C: 98 % of control
endpoint: median survival time, dose: 16.0 mg/kg/injection, schedule: Q02DX009 (ip), vehicle: saline, higher = longer survival
  T/C: 111 % of control
endpoint: median survival time, dose: 32.0 mg/kg/injection, schedule: Q01DX009 (ip), vehicle: saline, higher = longer survival
  T/C: 112 % of control
endpoint: median survival time, dose: 32.0 mg/kg/injection, schedule: Q02DX009 (ip), vehicle: saline, higher = longer survival
  T/C: 109 % of control
endpoint: median survival time, dose: 64.0 mg/kg/injection, schedule: Q01DX009 (ip), vehicle: saline, higher = longer survival
  T/C: 97 % of control
